Data published in publication PMC7702137 (2020).

Assays:
[1] = tested on: r(CUG)9 (RNA, repeat) CUGCUGCUGCUGCUGCUGCUGCUGCUG; test: SPR single cycle kinetics; details: 25 °C
[2] = tested on: r(CCG)9 (RNA, repeat) CCGCCGCCGCCGCCGCCGCCGCCGCCG; test: SPR single cycle kinetics; details: HBS-EP+ buffer, 25 °C

| K d(app) ([1]; Na+ not printed for the running buffer (HBS-EP+; 500 mM NaCl only for immobilization), apparent, assumed 1:1 binding isotherm, 0.063-1.0 μM) [µM] | binding ([2]; highest concentration tested 1.0 μM) | binding ([1]; HBS-EP+ buffer, 6.3-100 nM, significant response from 6.3 nM, not fitted) | binding ([2]; highest concentration tested 0.1 μM) | Structure (SMILES) |
| --- | --- | --- | --- | --- |
| 1.2 | weak | – | – | NCCCNc1nc(NC(=O)OCCCN)cc2c(-c3ccnc(N4CCNCC4)c3)cccc12 |
| – | – | yes | weak | NCCCNc1nc(NC(=O)OCCCNC(=O)CCNCCC(=O)NCCCOC(=O)Nc2cc3c(-c4ccnc(N5CCNCC5)c4)cccc3c(NCCCN)n2)cc2c(-c3ccnc(N4CCNCC4)c3)cccc12 |
